According to US9745357B2, “Peptides used for treating cancers and, in particular, chronic lymphoid leukaemia” (Centre National de la Recherche Scientifique, priority 2009, dated 2017):
No end group written: not given here.

How the values were obtained:
[1] = system: Jok cells (cell line derived from B lymphocytes); assay: Cell survival of Jok cells, annexin/propidium iodide flow cytometry; assay type: cell-based, human
Protocol: The cells are treated as indicated for FIG. 7, with the CLL cells, control T lymphocytes and Jok lymphocytes, which are incubated with the A1 WT IRS peptide and derivatives thereof described in table 1. The Jok cells were incubated either with 20 μM (JOK 20) or with 40 μM (JOK 40) of each of the peptides. In the interests of simplifying the legend, the A1 WT IRS peptide is referred to as “WT”. Likewise, the derivatives thereof are referred to by the name of the mutations (A1 K3I IRS is referred to as “K3I”, for example).
(§1) The cells were cultured in a culture medium composed either of RPMI 1640 (B lymphocytes) or of DMEM (COS7, HCT116, HGT1, 293, HeLa) containing 10% of FCS (fetal calf serum, 1% of penicillin-streptomycin and 1% of glutamine, Gibco BRL). The cells are distributed in a 24-well plate and cultured at 37° C. in a humid atmosphere under 5% CO2.
(§2) 400 μl of cell suspension (1×10^6 cells/ml) per well were treated for 4 h or 24 h with various concentrations of peptides. The test for activity of the peptides in the presence of emetine (FIG. 6) was carried out by preincubating the cells with 100 μM of emetine for one hour before the addition of peptide.
(§3) After the cells have been washed with PBS, they were analyzed using the Annexin V-FITC IP system according to the supplier's recommendations (Beckman Coulter).
The peptides were tested on B lymphocytes from patients suffering from chronic lymphoid leukemia, control T lymphocytes, or Jok cells (cell line derived from B lymphocytes). The experiment was repeated three times for each type of cell tested.

[2] = system: control T lymphocytes (patients suffering from hemochromatosis); assay: Cell survival of control T lymphocytes, annexin/propidium iodide flow cytometry; assay type: cell-based, human; details: 40 μM, 4 hours; FIG. 9
[3] = system: HeLa cells (cervical cancer); assay: Cell survival of HeLa cells, Syto 13/propidium iodide fluorescence microscopy; assay type: cell-based; details: one hour incubation, various concentrations; FIG. 10
Protocol: The cells cultured in glass-bottomed multiwell plates are incubated for one hour with the A1WT or A1 YALA peptide at the concentrations indicated on the figure. The percentage cell survival is obtained by calculating the ratio between the cells stained with Syto 13 and those stained with propidium iodide (see Materials and Methods).
The analyses were carried out on a Zeiss Observer Z1 epifluorescence microscope. The cells are cultured in a glass-bottomed multiwell plate, propidium iodide and Syto13 (Invitrogen) are added to the medium at a concentration of 1 mg/ml and 5 μM, respectively. The Syto 13 binds to the DNA in the nuclei of the cells which then emit a green fluorescence. When the membrane permeability is modified during the cell death process, the propidium iodide penetrates the cell and causes the appearance of a red fluorescence when it binds to the DNA of the cell nuclei. The ratio between the number of nuclei emitting a green fluorescence and the number of nuclei emitting a red fluorescence represents the fraction of live cells expressed as percentage cell survival in the figures.

[4] = system: T lymphocytes from a patient suffering from T-cell acute lymphoblastic leukemia (T-ALL); assay type: cell-based, human; details: FIG. 7, 4 H incubation
Protocol: (§4) FIG. 7: Activity of the A1WT peptide on cells of lymphocytic, lymphoid, gastric, colonic or renal origin The cells are prepared and placed in culture (see Materials and Methods) and then incubated for 4 H with the A1WT or A1 YALA peptide. The percentage cell survival corresponds to the percentage of cells labeled neither with annexin nor with propidium iodide, evaluated by flow cytometry. The names of the pathological conditions from which the patients from whom the samples are taken are suffering are indicated under the figure. The control T (L.T.) and B (L.B.) lymphocytes are taken from patients suffering from a disease not related to a lymphocytic pathological condition (hemochromatosis).
as §1, §2, §3
(§5) The cells of lymphoid origin all originated from samples taken from patients suffering from various pathological conditions classified according to the seat of the tumor proliferation. This proliferation takes place either in the bone marrow, for CLL, B-cell prolymphocytic leukemia and T-cell acute lymphoblastic leukemia (T-ALL); or in the lymph nodes for mantle cell lymphoma and marginal zone lymphoma. A classification can also be carried out according to the cell type affected: B lymphocytes (CLL, B-cell prolymphocytic leukemia, mantle cell lymphoma and marginal zone lymphoma) or T lymphocytes (T-ALL).

[5] = system: marginal zone lymphoma (MZL) cells; assay type: cell-based, human; details: 4 h, 40 μM
Protocol: as §4, §1, §2, §3, §5

[6] = system: mantle cell lymphoma cells; assay type: cell-based, human; details: 4 h, 40 μM
Protocol: as §4, §1, §2, §3, §5

[7] = system: control T lymphocytes (patients suffering from hemochromatosis); assay: Cell survival of control T lymphocytes, annexin/propidium iodide flow cytometry; assay type: cell-based, human
Protocol: as §4
The control B lymphocytes and T lymphocytes originate from peripheral blood samples from patients suffering from hemochromatosis, provided by the CTS transfusion center in Brest. The B and T lymphocytes were isolated using the Rosett-Sep kit (Stemcell Technologies) according to the supplier's recommendations.
as §1, §2, §3

[8] = system: HGT1 cell line derived from a gastric cancer; assay type: cell-based; details: 4 h, 40 μM
Protocol: as §4, §1, §2, §3

[9] = system: cells derived from a human colon cancer (HCT116); assay type: cell-based; details: 4 h, 40 μM
Protocol: as §4, §1, §2, §3

[10] = system: cells derived from a simian kidney cancer (COS7); assay type: cell-based; details: 4 h, 40 μM
Protocol: as §4, §1, §2, §3

[11] = 40 μM peptide, 4 hours of culture, cells not labeled with annexin or propidium iodide

For “RRKYGRDFLLRFRYIRS [A1 WT IRS, RRKYGRDFLLRFRYIRS]”, the “cell effect Jok 20 (survival)” value ([1]; 20 μM peptide, 4 hours of culture, cells not labeled with annexin or propidium iodide) was “+ (+: survival <25%)”, the “cell effect Jok 40 (survival)” value [1, 11] was “+ (+: survival <25%)” and the “effect of the peptide on cell mortality, in words (relative to A1 WT IRS)” value ([1]; 40 μM, 4 hours, FIG. 9) was “high cell mortality”. For the same sequence, the “effect of the peptide on cell mortality, in words (relative to A1 WT IRS)” value [2] was “the survival rate is higher in the control T cells”, the “effect on cell survival” value [3] was “high sensitivity” and the “effect on cell survival” value [4] was “as great as for the CLL cells”. For the same sequence, the survival rate [5] was “approximately 30%”, the survival rate [6] was “approximately 30%” and the “cell effect LT 40 (survival)” value [7, 11] was “+ (+: survival <25%)”. The survival rate ([7]; after 4 H of incubation with 40 μM, FIG. 7) was 38%, the cell survival [8] was “more than 88%” and the cell survival [9] was 94%. For the same sequence, the cell survival [10] was 90%.
